# Laboratory results as given in paper PMC12040169 (PLOS Biology, 2025).
# Assay: in vitro
# Settings: human, hela cells, % viability
structure (smiles),measurement,setting,value
O=C(c1ccc(F)cc1)[C@H]1CCCN(C(=O)c2cc(C3CC3)n[nH]2)C1 [CBK282410],"viability at 28.5 h, 10 µM",,99.6%
CSc1nccc(OCCOc2nccnc2N2CCNCC2)n1 [CBK000718G],"viability at 28.5 h, 10 µM",,104%
O=C1N(Cc2ccc(Br)cc2)CCc2cncn21 [CBK021187],"viability at 28.5 h, 10 µM",,79.7%
COc1cc(C=Cc2nc3cc(Cl)ccc3s2)ccc1OCC(=O)O [CBK297886],"viability at 28.5 h, 10 µM",,96.4%
COc1cncc(-c2cc(Nc3ccc(OC)c(OC)c3)ncn2)c1 [CBK090824],"viability at 28.5 h, 10 µM",,92%
Cc1ccc(OCC(=O)NCCCN(C)C)cc1 [CBK263595],"viability at 28.5 h, 10 µM",,98.3%
CN(C)S(=O)(=O)c1ccc(NC(=O)c2ccc(-c3ccccc3)cc2)cc1 [CBK267322],"viability at 28.5 h, 10 µM",,104%
O=C(O)c1ccc(NS(=O)(=O)c2cc(Br)c(Cl)s2)cc1 [CBK034049],"viability at 28.5 h, 10 µM",,95.8%
COCOc1ccc(-c2nccnc2OC)cc1 [CBK106914],"viability at 28.5 h, 10 µM",,111%
CNC(=O)C1(Cc2ccc(-c3ccccc3)cc2)CCN(C(=O)Cc2ccc(C)cc2)CC1 [CBK285769],"viability at 28.5 h, 10 µM",,90.4%
O=C(c1ccc(N2CCCC2)cc1)N1CCc2sccc2C1c1ccco1 (stereo not drawn) [CBK285707],"viability at 28.5 h, 10 µM",,102%
COc1cc(Nc2nc(-c3ccccc3F)cn3ccnc23)cc(OC)c1OC [CBK037301],"viability at 28.5 h, 10 µM",,98.9%
CCC(CC)C(=O)N(C)c1c(C)nc2c(OCC(=O)c3ccc(F)cc3)cccn12 [CBK147239],"viability at 28.5 h, 10 µM",,113%
Cc1cc(Br)ccc1NC(=O)C(=O)NC1CC1 [CBK269284],"viability at 28.5 h, 10 µM",,83.6%
COc1ncc(-c2nccnc2OCc2cccs2)c(OC)n1 [CBK106750],"viability at 28.5 h, 10 µM",,102%
O=C1CC2(CCN(S(=O)(=O)c3ccc(F)cc3)CC2)CN1 [CBK283353],"viability at 28.5 h, 10 µM",,93.9%
CC(=O)NC1(c2ccc(F)cc2)CCN(C(=O)C(C)C)CC1 [CBK283491],"viability at 28.5 h, 10 µM",,103%
CC(C)(C)c1ccc(-c2cnc(N)c3ncccc23)cc1 [CBK067589],"viability at 28.5 h, 10 µM",,99.2%
CC(=O)NCCn1nc(-c2ccccc2F)cc1CN(C)C [CBK283473],"viability at 28.5 h, 10 µM",,95.7%
COc1cc(C)nc(NN)n1 [CBK262078],"viability at 28.5 h, 10 µM",,108%
CCOC(=O)N1CCN(C2CCCN(Cc3c(C)nn(C)c3Cl)C2)CC1 (stereo not drawn) [CBK306853],"viability at 28.5 h, 10 µM",,96.2%
CSCc1nnc(SCCC(=O)N2CCN(c3ccc(F)cc3)CC2)o1 [CBK240463],"viability at 28.5 h, 10 µM",,93.2%
O=C(Cc1c[nH]c2ccccc12)N1CCC2(CCN(C(=O)CC3CCCCC3)C2)C1 (stereo not drawn) [CBK131422],"viability at 28.5 h, 10 µM",,88.3%
Cc1nn(CCC(=O)NCc2ccco2)c(C)c1Cl [CBK269961],"viability at 28.5 h, 10 µM",,88.8%
COc1ccc(C2(NC(=O)Cn3ccnc3)CCCCC2)cc1 [CBK283661],"viability at 28.5 h, 10 µM",,84%
COc1cccc(NC(=O)c2cncc(-c3ccc(C(=O)N4CCOCC4)cc3)c2)c1 [CBK160213],"viability at 28.5 h, 10 µM",,96.2%
O=C1COc2ccccc2CCCC[C@@H]2CN(C(=O)Cn3ccc(=O)[nH]c3=O)CC[C@H]2N1 [CBK292048],"viability at 28.5 h, 10 µM",,102%
COc1ncc(-c2nccnc2OC2CCCCC2)c(OC)n1 [CBK106745],"viability at 28.5 h, 10 µM",,90.8%
COc1ccccc1CCCN1CCC(C(=O)NC(=O)Nc2ccccc2)CC1 [CBK034865],"viability at 28.5 h, 10 µM",,89.7%
COC(=O)c1c(NC(=S)Nn2cnnc2)sc2c1CCC(C)C2 (stereo not drawn) [CBK266942],"viability at 28.5 h, 10 µM",,91.6%
CC(C)(c1ccccc1)c1ccc(OCCNCCN)cc1 [CBK265102],"viability at 28.5 h, 10 µM",,103%
CN(C)CC(=O)Nc1cc(C(F)(F)F)ccc1Cl [CBK307420],"viability at 28.5 h, 10 µM",,87.2%
COc1ccc(-c2cnc3[nH]c(=O)n(C4CC4)c3n2)cc1 [CBK064907],"viability at 28.5 h, 10 µM",,86.9%
O=c1cc2oc3cc(O)c(O)cc3c(-c3ccc(OCc4cccc([N+](=O)[O-])c4)cc3)c-2cc1O [CBK265408],"viability at 28.5 h, 10 µM",,75.3%
O=C1NC2(CCN(C(=O)c3ccco3)CC2)Nc2ccccc21 [CBK284762],"viability at 28.5 h, 10 µM",,104%
O=C(CSc1nc(-c2cccs2)cc(C(F)(F)F)n1)NN1CCOCC1 [CBK307375],"viability at 28.5 h, 10 µM",,98.1%
COc1ccc(Cl)cc1NC(=O)CN(C1CCCCC1)S(C)(=O)=O [CBK266720],"viability at 28.5 h, 10 µM",,105%
O=C(Nc1ccc2c(c1)OCCO2)N1CCN(c2cc(C(F)(F)F)ccn2)CC1 [CBK162331],"viability at 28.5 h, 10 µM",,99.4%
COc1ccc(OC)c(C2CC(c3ccc(NS(C)(=O)=O)cc3)=NN2C(=O)CCC(=O)O)c1 (stereo not drawn) [CBK297781],"viability at 28.5 h, 10 µM",,107%
CNC(=O)c1sc2ccccc2c1C1CCN(C(=O)Cc2coc3c(C)c(C)ccc23)C1 (stereo not drawn) [CBK285876],"viability at 28.5 h, 10 µM",,90.3%
CC(=O)Nc1ccc(S(=O)(=O)Nc2ccc(-c3csc(C)n3)cc2)cc1 [CBK266261],"viability at 28.5 h, 10 µM",,85.7%
O=C(CSc1nnc(-c2ccccc2O)n1-c1ccccc1)Nc1ccc(N2CCOCC2)cc1 [CBK267874],"viability at 28.5 h, 10 µM",,103%
COc1ccc(C(C)(C)C)cc1S(=O)(=O)NC1CC(C)(C)NC(C)(C)C1 [CBK267865],"viability at 28.5 h, 10 µM",,102%
Cc1ccc(NC(=O)c2cc(C)[nH]n2)c(C)n1 [CBK200387],"viability at 28.5 h, 10 µM",,83.8%
CC(=O)c1sc(NC(=O)c2ccccc2)nc1-c1ccccc1 [CBK287315],"viability at 28.5 h, 10 µM",,87.8%
CCOc1ccc(N2C(=O)NC(=O)/C(=C/c3cn(CC(=O)Nc4ccccc4)c4ccccc34)C2=O)cc1 [CBK263544],"viability at 28.5 h, 10 µM","bulk resorufin, single well",90.2%
CN(C)CCCN1C(=O)C(O)=C(C(=O)c2ccncc2)C1c1ccccc1 (stereo not drawn) [CBK287779],"viability at 28.5 h, 10 µM",,107%
O=C(Nc1cccc(CCc2nc3ccccc3[nH]2)c1)c1ccc(Cn2cncn2)cc1 [CBK285648],"viability at 28.5 h, 10 µM",,89.1%
COc1ccccc1CN(CC1CCNCC1)C(=O)Nc1c(C)noc1C [CBK049739],"viability at 28.5 h, 10 µM",,94.7%
Cc1ccc(C2C3=C(CC(C)(C)CC3=O)Nc3[nH][nH]c(=O)c32)o1 (stereo not drawn) [CBK288147],"viability at 28.5 h, 10 µM",,104%
CC(Oc1cccc(Cl)c1)C(=O)N/N=C/c1cccc(Oc2ccccc2)c1 (stereo not drawn) [CBK262113],"viability at 28.5 h, 10 µM",,77.5%
O=C(Nc1ccc(S(=O)(=O)Nc2cncs2)cc1)c1ccc(-c2cccc(C(F)(F)F)c2)o1 [CBK266625],"viability at 28.5 h, 10 µM",,89%
CC(=O)c1cc(C)c(C)cc1N [CBK016322],"viability at 28.5 h, 10 µM",,127%
O=C(Nc1ccc(NC(=O)c2cc3ccccc3o2)cc1)c1ccc(-c2ccccc2)cc1 [CBK268887],"viability at 28.5 h, 10 µM",,107%
COC(=O)CCCN1CCCC12CCc1[nH]c3ccccc3c1C2 (stereo not drawn) [CBK107798T],"viability at 28.5 h, 10 µM",,95.6%
CCOc1cc(/C=N/NC(=O)c2cncc(Br)c2)c(Br)c(Br)c1O [CBK261386],"viability at 28.5 h, 10 µM",,86.3%
CCOC(=O)c1c(NC(=O)CSc2ccc(F)cc2)sc2c1CCCC2 [CBK266506],"viability at 28.5 h, 10 µM",,95.9%
O=C(NC1CC2CCC(C1)N2Cc1ccccc1)c1cccc(Cl)c1 (stereo not drawn) [CBK116291],"viability at 28.5 h, 10 µM",,95.4%
CN(Cc1c(F)cccc1Cl)C(=O)CSc1nc(CC(=O)O)cs1 [CBK296708],"viability at 28.5 h, 10 µM",,95.3%
O=C(CCN1C(=O)C2C3CCC(C3)C2C1=O)OCC(=O)c1ccc(Cl)c([N+](=O)[O-])c1 (stereo not drawn) [CBK264124],"viability at 28.5 h, 10 µM",,95.2%
Cc1ccc(-c2noc(C(C)NC(=O)C3(Cn4ccnc4)CC3)n2)cc1 (stereo not drawn) [CBK307661],"viability at 28.5 h, 10 µM",,113%
CC(=O)N1CCC[C@H]2NC(=O)CNC(=O)C3(C/C=C/C[C@H]21)CCN(CC1CCC1)CC3 [CBK292129],"viability at 28.5 h, 10 µM",,103%
O=[N+]([O-])c1cc(S(=O)(=O)n2ccc3ccccc32)ccc1N1CCNCC1 [CBK024593C],"viability at 28.5 h, 10 µM",,91.2%
Nn1cnn2c(SCC(=O)c3cccs3)nnc12 [CBK263184],"viability at 28.5 h, 10 µM",,105%
CCC(C(=O)Nc1ccc(OC(C)=O)cc1C(=O)O)c1ccccc1 (stereo not drawn) [CBK269685],"viability at 28.5 h, 10 µM",,94.5%
CCNC(=O)N1CC2(CCN(CC(=O)c3ccsc3)CC2)c2ccccc21 [CBK144601T],"viability at 28.5 h, 10 µM",,88.6%
O=C(CCN1C(=O)/C(=C\C=C\c2ccccc2)SC1=S)Nc1cccc(C(=O)O)c1 [CBK264798],"viability at 28.5 h, 10 µM",,109%
CN1CCC(Cc2nc(-c3cccc(OC(F)F)c3)n(CCO)n2)CC1 [CBK307294],"viability at 28.5 h, 10 µM",,90.2%
CC(=O)N1CCC[C@H]1Cn1nc(-c2cccs2)ccc1=O [CBK284249],"viability at 28.5 h, 10 µM",,78.1%
Cc1ccsc1-c1nc2cnccn2c1NC1CCCC1 [CBK283524],"viability at 28.5 h, 10 µM",,93.9%
O=C(O)CNC(=O)Cn1ccc2cc(OCc3ccccc3)ccc21 [CBK286665],"viability at 28.5 h, 10 µM",,81.2%
CCCCC1=NN2C(=N)/C(=C/c3cn(Cc4ccc([N+](=O)[O-])cc4)c4ccccc34)C(=O)N=C2S1 [CBK264320],"viability at 28.5 h, 10 µM",,106%
O=C(NNc1c(Cl)cccc1Cl)C(O)(c1ccccc1)c1ccccc1 [CBK262739],"viability at 28.5 h, 10 µM","bulk resorufin, single well",101%
Cc1cc(CN2CCN(C(C)c3nc(C(C)(C)C)no3)CC2)no1 (stereo not drawn) [CBK305641],"viability at 28.5 h, 10 µM",,97.7%
CN(CC(=O)NCC1CCN(c2cccc(Cl)c2)C1)Cc1cccnc1 (stereo not drawn) [CBK306761],"viability at 28.5 h, 10 µM",,93.4%
CCC(Oc1ccc(C)cc1)C(=O)Nc1ccc(S(N)(=O)=O)cc1 (stereo not drawn) [CBK270036],"viability at 28.5 h, 10 µM",,90.5%
O=C(O)C(Cc1ccccc1)N1C(=O)c2cccc([N+](=O)[O-])c2C1=O (stereo not drawn) [CBK115372],"viability at 28.5 h, 10 µM",,95.8%
CCCc1[nH]nc(O)c1C(=O)c1c(Cl)cccc1Cl [CBK093553],"viability at 28.5 h, 10 µM",,95.7%
Cc1cc(Cl)cc(Cl)c1S(=O)(=O)Nc1nc2c(s1)C(=O)CC(C)(C)C2 [CBK200034],"viability at 28.5 h, 10 µM",,104%
O=C(O)CCC(=O)N1CCN(C(=O)c2ccco2)CC1 [CBK286533],"viability at 28.5 h, 10 µM",,102%
O=C(Nc1ccc(-c2nc3ccccc3o2)c(O)c1)c1ccc(-c2ccc([N+](=O)[O-])cc2)o1 [CBK263416],"viability at 28.5 h, 10 µM",,108%
Cc1[nH]c(=O)[nH]c(=O)c1CCC(=O)N(C)CC(=O)Nc1cccc(F)c1 [CBK305703],"viability at 28.5 h, 10 µM",,99.6%
CCCN(Cc1cccs1)C1Cc2cc(OC)c(OC)cc2C1 [CBK017567C],"viability at 28.5 h, 10 µM",,96.8%
CCN(CC)C(=O)c1ccccc1NS(=O)(=O)c1ccc(C)cc1 [CBK045416],"viability at 28.5 h, 10 µM",,88.7%
Cc1ccc(S(=O)(=O)N2CCCCC2CO)cc1 (stereo not drawn) [CBK051142],"viability at 28.5 h, 10 µM",,114%
CCOc1ccc(N2C(=O)CC(N3CCN(c4ccccn4)CC3)C2=O)cc1 (stereo not drawn) [CBK263285],"viability at 28.5 h, 10 µM",,100%
CCN(CC)C(=O)C1CCCN(C(=O)Nc2ccc3[nH]ccc3c2)C1 (stereo not drawn) [CBK156133],"viability at 28.5 h, 10 µM",,98%
